In patent US20250360122A1, “USE OF NAMPT INHIBITORS IN THE MANUFACTURE OF MEDICAMENTS FOR PREVENTING AND/OR TREATING PIGMENTED VILLONODULAR SYNOVITIS” (WEST CHINA HOSPITAL, SICHUAN UNIVERSITY, priority 2024, published 2025):

Legend:
Type in all cases: in vivo, female NOD-SCID mice
[1] = tested on: PVNS grafts; assay: PVNS-PDX tumor model, tumor growth / final tumor size; conditions: PVNS-PDX mice, 14 days of FK866 treatment, 30 mg/kg i.p.
Excerpt: (§1) A PVNS-human-derived tissue xenograft (PDX) tumor model was established using female NOD-SCID gnotobiotic mice aged 5 to 6 weeks. The human-derived tissue was sourced from the tumor tissue of patients with a confirmed diagnosis of PVNS who underwent surgery. During the surgery, viable synovial tissue was collected and then transplanted to construct the PVNS-PDX tumor model. The mice were purchased from Vital River Laboratory Animal Technology Co., Ltd. (Beijing, China) and were housed in micro-isolator cages under specific pathogen-free conditions. Tumor grafts were prepared using sterile SmartFlow (Airtech, China). After removing the necrotic tissue, the tumor tissue was rinsed three times with physiological saline. Subsequently, the tumor mass was segmented into small pieces (diameter ranging from 1.0 to 3.0 mm) using a surgical blade. The tumor tissue (graft) was suspended in serum-free Dulbecco's Modified Eagle Medium and then cryopreserved for implantation. The surgery was carried out by using an anesthesia machine. Mice were anesthetized with 2.5% isoflurane and kept in a lateral position. The skin was sterilely prepared using surgical-grade povidone-iodine, and a small dorsal midline incision (approximately 20.0 mm) was made in the kidney area. […] Tumor size was measured under a microscope and calculated using the formula […], where L is the length and W is the width.

[2] = tested on: PVNS grafts; assay: Vascular permeability assay (Evans blue) in PVNS grafts; conditions: PVNS-PDX mice, after 14 days of FK866 30 mg/kg i.p.; mean±S.E.M.; p<0.001 vs. PDX group (14.93±2.003)
Excerpt: as §1, with “machine.” for “machine. Mice were anesthetized with 2.5% isoflurane and kept in a lateral position. The skin was sterilely prepared using surgical-grade povidone-iodine, and a small dorsal midline incision (approximately 20.0 mm) was made in the kidney area.”
[…] The concentration of Evans blue in the tissue extract was measured using a microplate reader at a wavelength of 630 nm and a standard curve of Evans blue concentration. […]

[3] = tested on: fibrinogen (FGB); assay: Immunofluorescence staining of FGB and CD31 in PVNS-PDX mice; conditions: FK866 30 mg/kg i.p., in contrast to the PDX group
Excerpt: as §1, with “machine.” for “machine. Mice were anesthetized with 2.5% isoflurane and kept in a lateral position. The skin was sterilely prepared using surgical-grade povidone-iodine, and a small dorsal midline incision (approximately 20.0 mm) was made in the kidney area.”
The frozen tissue sections were thawed at room temperature for 1 hour. […] The tissue sections were observed using a fluorescence microscope, and the fluorescence intensity was assessed using ImageJ. […]

[4] = tested on: JUND; assay: Immunohistochemistry of JUND in PVNS-PDX mice; conditions: FK866 30 mg/kg i.p. twice daily, four consecutive days weekly, two weeks, compared to the PDX group
Excerpt: as §1, with “machine.” for “machine. Mice were anesthetized with 2.5% isoflurane and kept in a lateral position. The skin was sterilely prepared using surgical-grade povidone-iodine, and a small dorsal midline incision (approximately 20.0 mm) was made in the kidney area.”
The synovial tissue was fixed in 10% neutral buffered formalin for two days, followed by dehydration with a series of graded ethanol. […] The integrated optical density values of positive staining were evaluated using ImageJ software.

[5] = tested on: JUND; assay: Western blot of JUND in synovium of PVNS-PDX mice; conditions: FK866 30 mg/kg i.p. twice daily, four consecutive days weekly, two weeks, compared to the PDX group
Excerpt: A PVNS-human-derived tissue xenograft (PDX) tumor model was established using female NOD-SCID gnotobiotic mice aged 5 to 6 weeks. The human-derived tissue was sourced from the tumor tissue of patients with a confirmed diagnosis of PVNS who underwent surgery. During the surgery, viable synovial tissue was collected and then transplanted to construct the PVNS-PDX tumor model. The mice were purchased from Vital River Laboratory Animal Technology Co., Ltd. (Beijing, China) and were housed in micro-isolator cages under specific pathogen-free conditions. Tumor grafts were prepared using sterile SmartFlow (Airtech, China). After removing the necrotic tissue, the tumor tissue was rinsed three times with physiological saline. […] Tumor size was measured under a microscope and calculated using the formula […], where L is the length and W is the width.
Synovial tissue lysates were prepared using RIPA buffer supplemented with PMSF, incubated on ice, and physically sheared for 25 min. The proteins were extracted, and their concentration was measured using the BCA protein assay kit (Beyotime, P0011). […] Band intensity was quantified using ImageJ software version 1.39 V. The primary antibodies used were: anti-NAMPT (1:1000, ABclonal, A0256); anti-ITGA5 (1:1000, ABclonal, A19069); anti-JUND (1:1000, ABclonal, A5496); and anti-β-actin (1:1000, ABclonal, AC006).

O=C(/C=C/c1cccnc1)NCCCCC1CCN(C(=O)c2ccccc2)CC1 [FK866]
Tumor growth [1]: significantly inhibited
Evan's blue dye concentration in PVNS grafts (vascular leakage) [2]: 4.040±1.618 ng Evan's blue dye/mg tissue
FGB deposition around the blood vessels (immunofluorescence) [3]: significantly reduced
JUND expression (IHC staining) [4]: notable reduction
JUND expression (WB analysis) [5]: significant decrease
